Source: paper PMC12812009, “Optimization of 4‐Amino‐2‐Pyridone Inhibitors of Proprotein Convertase Subtilisin/Kexin Type 9: Integrating Structure–Activity and Structure–Metabolism Relationships” (Chemmedchem, 2025)
Read-outs that look alike come from different tables or passages of the source.

Assays:
Format in all cases: cell-based, human
[1] = test system: PCSK9 mRNA; assay: PCSK9 mRNA expression in HepG2 cells by RTqPCR; settings: 24 h incubation, increasing concentrations
Procedure: To further investigate the mechanism of action of these compounds, we evaluated the PCSK9 mRNA levels after 24 h incubation with increasing concentrations of 5c, 6b, and 7.
Total RNA was extracted using the iScript RT‐qPCR Sample Prep reagent (Bio‐Rad), according to the manufacturer's instructions. QuantiNova SYBR Green RT‐PCR Kit (QIAGEN, Hilden, Germany) was used for qPCR, along with specific primers for 18S (FWD 5′‐[…]‐3′, REV 5′‐[…]‐3′) PCSK9 (FWD 5′‐CCTGCGCGTGCTCAACT‐3′, REV 5′‐[…]‐3′). The analyses were performed with the CFX96 Touch Real‐Time PCR Detection System (Bio‐Rad) with cycling conditions of 45 °C for 10 min, 95 °C for 5 min, and a repetition of 40 cycles at 95 °C for 5 s followed by 30 s at 60 °C. The data were expressed as Ct values and used for relative quantification of targets with ΔΔCt calculations. The ΔΔCt values were determined by multiplying the ratio value between the efficiency of specific primers and housekeeping 18S. The efficiency was calculated as ((10(‐1/slope))−1) × 100.

[2] = MTT cell viability assay in HepG2 cell cultures; settings: human, HepG2 cells, MTT
Procedure: The approach we set‐up to test the new PCSK9i was based on functional assay, which evaluated at the same time compounds cytotoxicity, and their effect on the secreted PCSK9 on the same cell line. First, cell viability was evaluated in HepG2 cell cultures using the MTT assay (CC50 values are reported in Table 1 and Figure 5 ) after 24 h of incubation in starving conditions (0.4% fetal bovine serum (FBS)). The low FBS concentration, and thus low extracellular lipoproteins, stimulates the sterol responsive element binding protein (SREBP) pathway, inducing the expression of LDLR, PCSK9, HMG‐CoA reductase,^[ [28] ^] thus increasing the uptake of exogenous cholesterol and enhancing the synthesis of endogenous cholesterol. This first step allowed us to calculate the CC50 and identify the noncytotoxic concentrations (viability higher than 90%; Table 1), then tested for PCSK9 inhibitory activity.
Cell viability was assessed using the MTT assay. Cells were seeded in 96‐well plates (2.5 × 10^4 cells/well) in MEM supplemented with 10% v/v FBS and incubated for 24 h. The cells were then treated with the synthesized compounds dissolved in DMSO at increasing concentrations (from 0.5 to 50 µM) in MEM supplemented with 0.4% v/v FBS for 24 h. Simvastatin [20 and 40 µM] and BBR [10 µM] (both from Merck, St. Louis, Missouri, USA) were used as internal controls as PCSK9 inducer and inhibitor, respectively.^[ [21] ^, [34] ^, [35] ^] The cells were then incubated for 2 h with a solution of MTT [1 mg mL^–1] in MEM supplemented with 0.4% v/v FBS, away from light sources. The supernatant was then collected and 200 µL of DMSO was added to each well to solubilize the newly formed formazan. Finally, an aliquot of 100 µL was taken to measure the absorbance at a wavelength of 570 nm using an absorbance microplate reader (Spark Tecan, Switzerland). Every experimental condition was run in duplicate and the average cell viability and standard deviation was calculated. Cell viability was expressed as the percentage of treated cells compared to untreated (basal) cells. CC50 values for each compound were calculated by interpolating the percentage of cell viability through nonlinear regression analysis of the log (inhibition) versus response using GraphPad Prism software version 8.0 (GraphPad Software Inc., La Jolla, CA).

[3] = test system: secreted PCSK9; assay: PCSK9 secretion in culture medium, ELISA on HepG2 supernatants; settings: for IC50: HepG2, Table S2, ELISA, non-cytotoxic concentrations, read-out: IC50 ± SD on PCSK9 secreted by HepG2; for decrease of secreted PCSK9 vs. basal: given as decrease
Procedure: Next, the levels of secreted PCSK9 were quantified by ELISA assay (Figure 5) only on supernatants collected from cells treated with noncytotoxic concentrations of each compound, as reported in Table 1. Simvastatin (Simva) at 20 and 40 μM and berberine (BBR) at 10 μM were included as controls. As described in the literature, simvastatin induces PCSK9 expression as a compensatory mechanism in response to its cholesterol‐lowering effects, being a pharmacological competitor for HMG‐CoA reductase, the rate‐limiting enzyme of the cholesterol biosynthetic pathway.^[ [29] ^] In contrast, BBR, a natural compound, reduces the expression of PCSK9 levels through transcriptional inhibition, thus increasing the LDLR availability on plasma membrane.^[ [30] ^] As additional and distinct mechanism to the latter, BBR is also able to stabilize the transcript of LDLR, thus increasing its half‐life.^[ [31] ^] As expected, cells stimulated with simvastatin released more PCSK9 into the culture medium compared to unstimulated cells, with a statistically significant concentration‐dependent effect (+73% at 20 μM, p < 0.01; +200% at 40 μM, p < 0.0001), while BBR at 10 μM decreased PCSK9 levels in the medium more than 50% (p < 0.0001 vs. basal) (Figure 5).^[ [32] ^] The amount of PCSK9 secreted into the culture media was measured with an appropriate ELISA kit (R&D System, DY3888 and DY008B2) on the supernatants collected during the MTT assay. Every experimental condition was run in duplicate and the average PCSK9 secretion and standard deviation was calculated. A 4PL regression analysis was used to interpolate unknowns with the standard curve using GraphPad Prism v10.2, according to manufacturers’ instructions. The data were normalized onto the corresponding cell viability, and IC50 was then calculated using GraphPad Prism v10.2.

[4] = Homo sapiens, 10 μM, HepG2, 24 h, read-out: secreted PCSK9 change vs. basal
[5] = printed in Figures 5 and 8, HepG2, 24 h, read-out: CC50

Cc1cc(NCc2ccc(C(F)(F)F)cc2)c(Br)c(=O)n1Cc1ccc(C(F)(F)F)cc1 [Compound 6b, 3‐Bromo‐6‐Methyl‐1‐(4‐(Trifluoromethyl)Benzyl)‐4‐((4‐(Trifluoromethyl)Benzyl)Amino)pyridin‐2(1H)‐One]
PCSK9 mRNA expression (in words) [1]: strongly suppressed the PCSK9 mRNA expression
CC50 at 24 h ([2]; 24 h incubation, HepG2, 0.4% FBS, 0.5-50.0 μM, read-out: CC50 (CI 95%)): 27 µM
IC50 ([3]; Homo sapiens): 2.6 ± 1.61 µM
inhibition at 5 µM ([3]; Homo sapiens, 5 μM, HepG2, 24 h, read-out: secreted PCSK9 change vs. basal): 75%
inhibition at 10 µM [3, 4]: 90%

Cc1cc2c(sc(=N)n2Cc2ccc(C(F)(F)F)cc2)c(=O)n1Cc1ccc(C(F)(F)F)cc1 [Compound 7, 2‐Imino‐6‐Methyl‐1,5‐Bis(4‐(Trifluoromethyl)benzyl)‐1,2‐Dihydrothiazolo[5,4‐c]pyridin‐4(5H)‐One]
PCSK9 mRNA expression (in words) [1]: strongly suppressed the PCSK9 mRNA expression
CC50 at 24 h [2, 5]: > 50 µM
decrease of secreted PCSK9 vs. basal ([3]; 10 μM, HepG2, 24 h): 74%
decrease of secreted PCSK9 vs. basal ([3]; 25 μM, HepG2, 24 h): 90%
IC50 ([3]; Homo sapiens): 4.1 ± 0.36 µM
inhibition at 10 µM [3, 4]: 74%

Cc1cc(NCc2ccc(C(F)(F)F)cc2)cc(=O)n1Cc1ccc(C(F)(F)F)cc1 [Compound 5c]
PCSK9 mRNA expression (in words) [1]: strongly suppressed the PCSK9 mRNA expression
CC50 at 24 h [2, 5]: 32.4 µM
IC50 ([3]; Homo sapiens): 1.7 ± 0.67 µM
